Test results reported in US12485096B2 (CHENLAND NUTRITIONALS, INC., priority 2020, dated 2025).

How the values were obtained:
[1] = tested on: Caco-2 cells, HT-29 cells and Raji-B cells; assay: Cell uptake of curcumin in three-cell model, flow cytometry; conditions: curcumin 20 μg/mL, 4 hours; verapamil 300 μg/mL, sodium azide 1 mg/mL, ketoconazole 10 μg/mL
[2] = Dispersion in water (photographs, FIG. 1); type: physicochemical

Structure (SMILES): COc1cc(/C=C/C(=O)CC(=O)/C=C/c2ccc(O)c(OC)c2)ccc1O [Curcumin raw material, Curcumin]
- average value (intake of curcumin by cells, fluorescence) [1]: 19.4
- dispersion in water (in words) [2]: insoluble in water
